From patent publication US4623662A, “Antiatherosclerotic ureas and thioureas” (American Cyanamid Company, priority 1985, dated 1986) come the findings set out here.

One may read the inhibition as the percentage by which the read-out fell short of the control. The % Inhibition is the relative decrease from the control value, in per cent.

Values joined by “and” are separate entries in the source; they are usually repeats but may differ in a detail not shown here. Equal entries are not always repeated. Where two headings read alike, the source gives them in different places.

Test [1] has as its target T1, fatty acyl CoA: cholesterol acyl transferase (ACAT) (Rattus norvegicus, UniProt O70536).
T1 construct: The supernatant, containing the microsomal fraction, served as the source of the cholesterol-esterifying enzyme; from tissue; host or cells: rat adrenals, supernatant of 1,000 x g centrifugation containing the microsomal fraction
T1 sequence (O70536 1-545): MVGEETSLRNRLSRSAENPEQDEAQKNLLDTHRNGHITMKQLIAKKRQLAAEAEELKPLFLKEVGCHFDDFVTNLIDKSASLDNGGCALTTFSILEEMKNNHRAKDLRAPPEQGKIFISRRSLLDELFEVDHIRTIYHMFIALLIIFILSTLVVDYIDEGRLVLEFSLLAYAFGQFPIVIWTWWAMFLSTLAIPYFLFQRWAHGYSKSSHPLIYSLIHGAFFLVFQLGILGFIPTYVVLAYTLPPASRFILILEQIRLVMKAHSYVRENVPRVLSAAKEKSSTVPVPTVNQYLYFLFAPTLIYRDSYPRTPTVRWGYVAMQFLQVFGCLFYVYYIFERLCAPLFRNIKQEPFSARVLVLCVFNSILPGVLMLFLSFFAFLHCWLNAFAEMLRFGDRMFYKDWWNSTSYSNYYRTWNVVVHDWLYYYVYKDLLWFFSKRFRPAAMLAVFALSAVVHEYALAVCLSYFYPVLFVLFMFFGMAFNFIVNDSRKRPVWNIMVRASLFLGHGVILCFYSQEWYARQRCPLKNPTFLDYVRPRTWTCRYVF
Kind of test: Inhibition of fatty acyl CoA:cholesterol acyl transferase (ACAT), rat adrenal enzyme. The format is biochemical. The method in brief: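 Enzyme source was the microsomal supernatant of rat adrenal homogenate (0.2M potassium phosphate, pH 7.4) with BSA, preincubated with compound (5.2 μg/ml final for single-point) for 10 min at 37° C. Then [14C]oleoyl CoA added, 10 min at 37° C. TLC-separated cholesteryl ester was counted; percent inhibition versus control, IC50 from several concentrations.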

For test [2], the system named is cholesterol absorption. Kind of test: Inhibition of cholesterol absorption in rats fed 1% cholesterol:0.5% cholic acid diet. The test is classed as in vivo, male Sprague-Dawley rats. As to conditions: po, 336 h, rat, dose .03% of the diet, 2 weeks. The method in brief: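 Male Sprague-Dawley rats (150-170 g) fed 1% cholesterol:0.5% cholic acid diet for 2 weeks with compound at 0.001, 0.003, 0.01 or 0.03% of diet. Serum cholesterol measured enzymatically; liver cholesterol from saponified large-lobe sample after petroleum ether extraction. Liver and serum sterol expressed as percent of untreated controls.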

Where [3] appears, read: rat adrenal ACAT, final concentration 5.2 μg/ml, read-out: % Inhibition.
Where [4] appears, read: read-out: LS (liver sterol), percentage of control values.
Setting [5] is: read-out: SS (serum sterol), percentage of control values.

In the case of `CCCCOc1ccc(CN(Cc2ccccc2)C(=O)Nc2ccc(Cl)cc2Cl)cc1` [1-Benzyl-1-(4-n-butoxybenzyl)-3-(2,4-dichlorophenyl)urea], the inhibition at 5.2 µg/mL in test [1] (setting [3]) was determined as 80%. The response vs control in vivo at 0.03 % in test [2] (setting [4]) was 49%; in test [2] (setting [5]), 53%.
Take `CCCCOc1ccc(CN(Cc2ccccc2)C(=O)Nc2ccc(F)cc2F)cc1` [1-Benzyl-1-(4-n-butoxybenzyl)-3-(2,4-difluorophenyl)urea]: the inhibition at 5.2 µg/mL in test [1] (setting [3]) is 88%. Also, the response vs control in vivo at 0.03 % turned out to be 22% in test [2] (setting [4]) and 53% in test [2] (setting [5]).
With `CCCCOc1ccc(CN(Cc2ccccc2)C(=O)Nc2ccc(Cl)cc2C(F)(F)F)cc1` [1-Benzyl-1-(4-n-butoxybenzyl)-3-(2-trifluoromethyl-4-chlorophenyl)urea], the inhibition at 5.2 µg/mL in test [1] (setting [3]) came to 85%. Moreover, the response vs control in vivo at 0.03 % in test [2] (setting [4]) amounted to 31%; in test [2] (setting [5]), 58%.
For `CCCCc1ccc(CN(Cc2ccccc2)C(=O)Nc2cc(C)c(C)cc2C)cc1` [1-Benzyl-1-(4-n-butylbenzyl)-3-(2,4,5-trimethylphenyl)urea], in that order: 90.5%, 10% and 50%.
On to `CCCCc1ccc(CN(Cc2ccccc2)C(=O)Nc2c(C)cc(C)cc2C)cc1` [1-Benzyl-1-(4-n-butylbenzyl)-3-(2,4,6-trimethylphenyl)urea], for which, in test [1] (setting [3]), the inhibition at 5.2 µg/mL stood at 92.8%. Moreover, the figures for the response vs control in vivo at 0.03 % in test [2] (setting [4]) and in test [2] (setting [5]) were 13% and 53%, respectively.
For `CCCCc1ccc(CN(Cc2ccccc2)C(=O)Nc2ccc(C)cc2C)cc1` [1-Benzyl-1-(4-n-butylbenzyl)-3-(2,4-dimethylphenyl)urea], the inhibition at 5.2 µg/mL in test [1] (setting [3]) is 91.9%. Also, the response vs control in vivo at 0.03 % in test [2] (setting [4]) came out at 20%; in test [2] (setting [5]), 41%.
The matching figures for `CCCCc1ccc(CN(Cc2ccccc2)C(=O)Nc2ccc(Cl)cc2C)cc1` [1-Benzyl-1-(4-n-butylbenzyl)-3-(2-methyl-4-chlorophenyl)urea]: 94.3%, 21% and 70%.
The matching figures for `CCCCc1ccc(CN(Cc2ccccc2)C(=O)Nc2ccc(CCCC)cc2)cc1` [1-Benzyl-1-(4-n-butylbenzyl)-3-(4-n-butylphenyl)urea]: 92%, 61% and 53%.
In the case of `CCCCOc1ccc(CN(Cc2ccccc2)C(=O)Nc2cc(Cl)c(Cl)cc2Cl)cc1` [1-Benzyl-1-(4-n-butyloxybenzyl)-3-(2,4,5-trichlorophenyl)urea], the inhibition at 5.2 µg/mL in test [1] (setting [3]) was found to be 89%. Besides, the response vs control in vivo at 0.03 % is 65% in test [2] (setting [4]) and 66% in test [2] (setting [5]).
`CCCCN(Cc1ccccc1)C(=O)Nc1c(Cl)cc(Cl)cc1Cl` [1-Benzyl-1-( -n-butyl)-3-(2,4,6-trichlorophenyl)urea]: in test [1] (setting [3]), the inhibition at 5.2 µg/mL is 87.8%. Further, the response vs control in vivo at 0.03 % came out at 32% in test [2] (setting [4]) and 48% in test [2] (setting [5]).
As for `CCCCN(Cc1ccccc1)C(=O)Nc1c(C)cccc1C` [1-Benzyl-1-( -n-butyl)-3-(2,6-dimethylphenyl)urea], in test [1] (setting [3]), the inhibition at 5.2 µg/mL came to 83.1%. For the same molecule, the results for the response vs control in vivo at 0.03 % in test [2] (setting [4]) and in test [2] (setting [5]) were 91% and 68%, respectively.
For `CCCCN(Cc1ccccc1)C(=O)Nc1cc(C)cc(C)c1` [1-Benzyl-1-( -n-butyl)-3-(3,5-dimethylphenyl)urea], in test [1] (setting [3]), the inhibition at 5.2 µg/mL was 94.2%. Besides, the figures for the response vs control in vivo at 0.03 % in test [2] (setting [4]) and in test [2] (setting [5]) were 75% and 93%, respectively.
For `CCCCN(Cc1ccccc1)C(=O)Nc1ccc(C)cc1C` [1-Benzyl-1-(n-butyl)-3-(2,4-dimethylphenyl)urea], in that order: 91.3%, 65% and 70%.
For `O=C(Nc1c(Cl)cc(Cl)cc1Cl)N(Cc1ccccc1)C(Cc1ccccc1)c1ccc(OCc2ccccc2)cc1` (stereo not drawn) [1-Benzyl-1-[2-phenyl-1-(4-benzyloxyphenyl)ethyl]-3-(2,4,6-trichlorophenyl)urea], in that order: 95%, 64% and 95%.
As for `Cc1cc(C)c(NC(=O)N(Cc2ccccc2)C(Cc2ccccc2)c2ccc(OCc3ccccc3)cc2)c(C)c1` (stereo not drawn) [1-Benzyl-1-[2-phenyl-1-(4-benzyloxyphenyl)ethyl]-3-(2,4,6-trimethylphenyl)urea], 5.2 µg/mL produced 90% inhibition in test [1]. Besides, the response vs control in vivo at 0.03 % in test [2] (setting [4]) came to 49%; in test [2] (setting [5]) it was 60%.
For the molecule `O=C(Nc1ccc(F)cc1F)N(Cc1ccccc1)C(Cc1ccccc1)c1ccc(OCc2ccccc2)cc1` (stereo not drawn) [1-Benzyl-1-[2-phenyl-1-(4-benzyloxyphenyl)ethyl]-3-(2,4-difluorophenyl)urea], in test [1] (rat adrenal ACAT, final concentration 5.2 μg/ml), the “% Inhibition” value was 70.0% and 91.0%. Further, the figures for the response vs control in vivo at 0.03 % in test [2] (setting [4]) and in test [2] (setting [5]) were 27% and 48%, respectively.
Take `Cc1cc(Cl)ccc1NC(=O)N(Cc1ccccc1)C(Cc1ccccc1)c1ccc(OCc2ccccc2)cc1` (stereo not drawn) [1-Benzyl-1-[2-phenyl-1-(4-benzyloxyphenyl)ethyl]-3-(2-methyl-4-chlorophenyl)urea]: the inhibition at 5.2 µg/mL in test [1] (setting [3]) amounted to 89.3%. The response vs control in vivo at 0.03 % in test [2] (setting [4]) is 31%; in test [2] (setting [5]), 50%.
Regarding `CCCCCCCN(Cc1cccs1)C(=O)Nc1cc(C)c(C)cc1C` [1-Heptyl-1-(2-thienylmethyl)-3-(2,4,5-trimethylphenyl)urea], in test [1], testing at 5.2 µg/mL gave an inhibition of 90%. Further, the response vs control in vivo at 0.03 % in test [2] (setting [4]) is 25%; in test [2] (setting [5]) it was 54%.
In the case of `CCCCCCCN(Cc1cccs1)C(=O)Nc1c(Cl)cc(Cl)cc1Cl` [1-Heptyl-1-(2-thienylmethyl)-3-(2,4,6-trichlorophenyl)urea], in test [1], the inhibition at 5.2 µg/mL stood at 90%. In addition, the figures for the response vs control in vivo at 0.03 % in test [2] (setting [4]) and in test [2] (setting [5]) were 28% and 56%, respectively.
`Cc1ccc(CCN(Cc2cccc(Cl)c2)C(=O)Nc2ccc(C)cc2C)cc1` [1-[2-(4-Methylphenyl)ethyl]-1-(3-chlorobenzyl)-3-(2,4-dimethylphenyl)urea]: the inhibition at 5.2 µg/mL in test [1] (setting [3]) was determined as 67.6%. Moreover, the response vs control in vivo at 0.03 % in test [2] (setting [4]) worked out at 20%; in test [2] (setting [5]), 50%.
In turn, `CCCCOc1ccc(CN(Cc2cccs2)C(=O)Nc2cc(C)c(C)cc2C)cc1` [1-[(4-Butoxyphenyl)methyl]-1-(2-thienylmethyl)-3-(2,4,5-trimethylphenyl)urea] displayed an inhibition at 5.2 µg/mL in test [1] of 90%. For the same molecule, the response vs control in vivo at 0.03 % in test [2] (setting [4]) is 16%; in test [2] (setting [5]) it was 41%.
For `CCCCc1ccc(CN(CCCCCCCl)C(=O)Nc2cc(C)c(C)cc2C)cc1` [1-[(4-Butylphenyl)methyl]-1-(6-chlorohexyl)-3-(2,4,5-trimethylphenyl)urea], in that order: 90%, 15% and 40%.
`CCCCc1ccc(CN(CCCCCCCl)C(=O)Nc2c(Cl)cc(Cl)cc2Cl)cc1` [1-[(4-Butylphenyl)methyl]-1-(6-chlorohexyl)-3-(2,4,6-trichlorophenyl)urea] registered an inhibition at 5.2 µg/mL in test [1] of 90%. The response vs control in vivo at 0.03 % in test [2] (setting [4]) amounted to 19%; in test [2] (setting [5]), 34%.
`CCCCc1ccc(CN(CCCCCCCl)C(=O)Nc2ccc(Cl)cc2C)cc1` [1-[(4-Butylphenyl)methyl]-1-(6-chlorohexyl)-3-(4-chloro-2-methylphenyl)urea]: in test [1], testing at 5.2 µg/mL gave an inhibition of 90%. Also, the response vs control in vivo at 0.03 % in test [2] (setting [4]) stood at 35%; in test [2] (setting [5]) it was 46%.
Turning to `CCCCc1ccc(CN(CCCCCCC#N)C(=O)Nc2cc(C)c(C)cc2C)cc1` [1-[(4-Butylphenyl)methyl]-1-(6-cyanohexyl)-3-(2,4,5-trimethylphenyl)urea], the inhibition at 5.2 µg/mL in test [1] is 90%. Also, the response vs control in vivo at 0.03 % in test [2] (setting [4]) is 28%; in test [2] (setting [5]) it was 48%.
Consider `CCCCc1ccc(CN(CCCCCCC#N)C(=O)Nc2c(Cl)cc(Cl)cc2Cl)cc1` [1-[(4-Butylphenyl)methyl]-1-(6-cyanohexyl)-3-(2,4,6-trichlorophenyl)urea], for which, in test [1], 5.2 µg/mL produced 90% inhibition. Moreover, the values for the response vs control in vivo at 0.03 % in test [2] (setting [4]) and in test [2] (setting [5]) were 35% and 31%, respectively.
